From patent US20230085307A1, “PYRIDAZINONE COMPOUND AND HERBICIDE” (NISSAN CHEMICAL CORPORATION, priority 2019, published 2023)

Columns and labels:
Japanese bulrush [1] = experiment: Test Example 1: herbicidal activity, application before weed generation under submerged conditions (Table 16, symbol B); format: in vivo, Japanese bulrush (Schoenoplectus juncoides); conditions: 320 g/ha applied herbicide
In short: (§1)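 Emulsion formulation, water-diluted to set dose, was put onto the flooded surface (4 cm depth, alluvial soil) the same day weeds were sown and 2.5-leaf rice transplanted. After 3 weeks at 25-30 °C under glass, each species was rated 0 (≤5% kill) to 5 (≥90% kill).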

oval-leafed pondweed [2] = experiment: Test Example 1: herbicidal activity, application before weed generation under submerged conditions (Table 16, symbol C); format: in vivo, oval-leafed pondweed (Monochoria vaginalis); conditions: 320 g/ha applied herbicide
In short: as §1

Japanese bulrush [3] = experiment: Test Example 2: herbicidal activity, application during weed generation under submerged conditions (Table 17, symbol B); format: in vivo, Japanese bulrush (Schoenoplectus juncoides); conditions: AAH 320 g/ha; application during weed generation, submerged conditions
In short: (§2)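 Wagner pot, alluvial soil, 4 cm flood; mixed sowing of all species; greenhouse 25° C.–30° C. Emulsifiable formulation, water-diluted to predetermined dose, applied to paddy water at 1–2 leaf stage. Effect rated at 3 wk using the earlier test's scoring criteria.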

oval-leafed pondweed [4] = experiment: Test Example 2: herbicidal activity, application during weed generation under submerged conditions (Table 17, symbol C); format: in vivo, oval-leafed pondweed (Monochoria vaginalis); conditions: AAH 320 g/ha; application during weed generation, submerged conditions
In short: as §2

rice flat sedge = experiment: Test Example 3: herbicidal effect by foliage application, Wagner pot (Table 18, symbol E); format: in vivo, rice flat sedge (Cyperus iria); conditions: 320 g/ha
In short: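 Plants were sown in alluvial soil held under 0.1–0.5 cm standing water and grown 14 days in a greenhouse at 25–30 °C. An emulsifiable formulation, water-diluted to the set dose, was then sprayed onto the foliage, and effects were scored three weeks later using previously defined criteria.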

green foxtail [5] = experiment: Test Example 4: herbicidal effect by soil treatment (Table 19, symbol G); format: in vivo, green foxtail (Setaria viridis); conditions: 320 g/ha
In short: (§3)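 Herbicidal effect was rated 3 weeks after treatment, using the scoring criteria of an earlier test. The compound, formulated as an emulsion and diluted in water to a set herbicide amount, had been sprayed uniformly on soil over freshly sown seeds. Growth took place in a greenhouse at 25° C. to 30° C.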

wild oat = experiment: Test Example 4: herbicidal effect by soil treatment (Table 19, symbol I); format: in vivo, wild oat (Avena fatua); conditions: 320 g/ha
In short: as §3

Italian ryegrass = experiment: Test Example 4: herbicidal effect by soil treatment (Table 19, symbol K); format: in vivo, Italian ryegrass (Lolium multiflorum); conditions: 320 g/ha
In short: as §3

windgrass [6] = experiment: Test Example 4: herbicidal effect by soil treatment (Table 19, symbol L); format: in vivo, windgrass (Apera spica-venti); conditions: 320 g/ha
In short: as §3

velvetleaf = experiment: Test Example 4: herbicidal effect by soil treatment (Table 19, symbol M); format: in vivo, velvetleaf (Abutilon theophrasti); conditions: 320 g/ha
In short: as §3

persian speedwell = experiment: Test Example 4: herbicidal effect by soil treatment (Table 19, symbol R); format: in vivo, Persian speedwell (Veronica persica); conditions: 320 g/ha
In short: as §3

southern crabgrass = experiment: Test Example 5: herbicidal effect by foliage application, plastic box (Table 20, symbol F); format: in vivo, southern crabgrass (Digitaria ciliaris); conditions: foliage application, 320 g/ha, evaluated three weeks after application
In short: (§4)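 Foliar spray test: emulsion formulation diluted in water to a set application rate, sprayed onto 14-day-old plants raised in diluvial soil at 25° C to 30° C under glass. Both herbicidal effect and crop effect rated visually three weeks later.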

green foxtail [7] = experiment: Test Example 5: herbicidal effect by foliage application, plastic box (Table 20, symbol G); format: in vivo, green foxtail (Setaria viridis); conditions: foliage application, 320 g/ha, evaluated three weeks after application
In short: as §4

windgrass [8] = experiment: Test Example 5: herbicidal effect by foliage application, plastic box (Table 20, symbol L); format: in vivo, windgrass (Apera spica-venti); conditions: foliage application, 320 g/ha, evaluated three weeks after application
In short: as §4

lambsquarters = experiment: Test Example 5: herbicidal effect by foliage application, plastic box (Table 20, symbol O); format: in vivo, lambsquarters (Chenopodium album); conditions: foliage application, 320 g/ha, evaluated three weeks after application
In short: as §4

chickweed = experiment: Test Example 5: herbicidal effect by foliage application, plastic box (Table 20, symbol P); format: in vivo, common chickweed (Stellaria media); conditions: foliage application, 320 g/ha, evaluated three weeks after application
In short: as §4

SMILES | Herbicidal effect on B: Japanese bulrush (grade 0-5) (Japanese bulrush [1]) | Herbicidal effect on C: oval-leafed pondweed (grade 0-5) (oval-leafed pondweed [2]) | herbicidal effect rating, B: Japanese bulrush (Japanese bulrush [3]) | herbicidal effect rating, C: oval-leafed pondweed (oval-leafed pondweed [4]) | herbicidal effect on E (rice flat sedge), rating 0-5 (rice flat sedge) | herbicidal effect rating, G: green foxtail (green foxtail [5]) | herbicidal effect rating, I: wild oat (wild oat) | herbicidal effect rating, K: Italian ryegrass (Italian ryegrass) | herbicidal effect rating, L: windgrass (windgrass [6]) | herbicidal effect rating, M: velvetleaf (velvetleaf) | herbicidal effect rating, R: persian speedwell (persian speedwell) | herbicidal effect on F: southern crabgrass (southern crabgrass) | herbicidal effect on G: green foxtail (green foxtail [7]) | herbicidal effect on L: windgrass (windgrass [8]) | herbicidal effect on O: lambsquarters (lambsquarters) | herbicidal effect on P: chickweed (chickweed)
CON=C(C)c1ccc(-c2sc3ccc(F)cc3c2-c2c(O)c(C)nn(C)c2=O)cc1 [2-079] | 3 (Herbicidal rate of 40% or more and less than 70%) | 1 (Herbicidal rate of 5% or more and less than 20%) | 0 (Herbicidal rate of 5% or less (almost no effect)) | 2 (Herbicidal rate of 20% or more and less than 40%) | 5 (Herbicidal rate of 90% or more (almost completely withered)) | 5 (Herbicidal rate of 90% or more (almost completely withered)) | 0 (Herbicidal rate of 5% or less (almost no effect)) | 4 (Herbicidal rate of 70% or more and less than 90%) | 0 (Herbicidal rate of 5% or less (almost no effect)) | 4 (Herbicidal rate of 70% or more and less than 90%) | 5 (Herbicidal rate of 90% or more (almost completely withered)) | 5 (Herbicidal rate of 90% or more (almost completely withered)) | 5 (Herbicidal rate of 90% or more (almost completely withered)) | 5 (Herbicidal rate of 90% or more (almost completely withered)) | 5 (Herbicidal rate of 90% or more (almost completely withered)) | 5 (Herbicidal rate of 90% or more (almost completely withered))
CCCC(=O)Oc1c(C)nn(C)c(=O)c1-c1c(-c2ccc(C(C)=NOC)cc2)sc2ccc(F)cc12 [2-080] | 5 (Herbicidal rate of 90% or more (almost completely withered)) | 4 (Herbicidal rate of 70% or more and less than 90%) | 4 (Herbicidal rate of 70% or more and less than 90%) | 4 (Herbicidal rate of 70% or more and less than 90%) | 5 (Herbicidal rate of 90% or more (almost completely withered)) | 1 (Herbicidal rate of 5% or more and less than 20%) | 0 (Herbicidal rate of 5% or less (almost no effect)) | 4 (Herbicidal rate of 70% or more and less than 90%) | 2 (Herbicidal rate of 20% or more and less than 40%) | 5 (Herbicidal rate of 90% or more (almost completely withered)) | 5 (Herbicidal rate of 90% or more (almost completely withered)) | 5 (Herbicidal rate of 90% or more (almost completely withered)) | 4 (Herbicidal rate of 70% or more and less than 90%) | 5 (Herbicidal rate of 90% or more (almost completely withered)) | 5 (Herbicidal rate of 90% or more (almost completely withered)) | 5 (Herbicidal rate of 90% or more (almost completely withered))
CCOc1cc(F)ccc1-c1sc2ccc(F)cc2c1-c1c(O)c(C)nn(C)c1=O [2-084] | 1 (Herbicidal rate of 5% or more and less than 20%) | 2 (Herbicidal rate of 20% or more and less than 40%) | 1 (Herbicidal rate of 5% or more and less than 20%) | 3 (Herbicidal rate of 40% or more and less than 70%) | 5 (Herbicidal rate of 90% or more (almost completely withered)) | 4 (Herbicidal rate of 70% or more and less than 90%) | 2 (Herbicidal rate of 20% or more and less than 40%) | 3 (Herbicidal rate of 40% or more and less than 70%) | 1 (Herbicidal rate of 5% or more and less than 20%) | 3 (Herbicidal rate of 40% or more and less than 70%) | 5 (Herbicidal rate of 90% or more (almost completely withered)) | 4 (Herbicidal rate of 70% or more and less than 90%) | 5 (Herbicidal rate of 90% or more (almost completely withered)) | 4 (Herbicidal rate of 70% or more and less than 90%) | 3 (Herbicidal rate of 40% or more and less than 70%) | 5 (Herbicidal rate of 90% or more (almost completely withered))
CCCC(=O)Oc1c(C)nn(C)c(=O)c1-c1c(-c2ccc(F)cc2OCC)sc2ccc(F)cc12 [2-085] | 3 (Herbicidal rate of 40% or more and less than 70%) | 1 (Herbicidal rate of 5% or more and less than 20%) | 3 (Herbicidal rate of 40% or more and less than 70%) | 3 (Herbicidal rate of 40% or more and less than 70%) | 4 (Herbicidal rate of 70% or more and less than 90%) | 3 (Herbicidal rate of 40% or more and less than 70%) | 2 (Herbicidal rate of 20% or more and less than 40%) | 0 (Herbicidal rate of 5% or less (almost no effect)) | 0 (Herbicidal rate of 5% or less (almost no effect)) | 0 (Herbicidal rate of 5% or less (almost no effect)) | 3 (Herbicidal rate of 40% or more and less than 70%) | 5 (Herbicidal rate of 90% or more (almost completely withered)) | 3 (Herbicidal rate of 40% or more and less than 70%) | 1 (Herbicidal rate of 5% or more and less than 20%) | 3 (Herbicidal rate of 40% or more and less than 70%) | 5 (Herbicidal rate of 90% or more (almost completely withered))
Cc1nn(C)c(=O)c(-c2c(-c3ccc4c(c3)OCCO4)sc3ccc(F)cc23)c1O [2-092] | 3 (Herbicidal rate of 40% or more and less than 70%) | 2 (Herbicidal rate of 20% or more and less than 40%) | 3 (Herbicidal rate of 40% or more and less than 70%) | 4 (Herbicidal rate of 70% or more and less than 90%) | 5 (Herbicidal rate of 90% or more (almost completely withered)) | 2 (Herbicidal rate of 20% or more and less than 40%) | 0 (Herbicidal rate of 5% or less (almost no effect)) | 1 (Herbicidal rate of 5% or more and less than 20%) | 0 (Herbicidal rate of 5% or less (almost no effect)) | 5 (Herbicidal rate of 90% or more (almost completely withered)) | 5 (Herbicidal rate of 90% or more (almost completely withered)) | 4 (Herbicidal rate of 70% or more and less than 90%) | 4 (Herbicidal rate of 70% or more and less than 90%) | 4 (Herbicidal rate of 70% or more and less than 90%) | 5 (Herbicidal rate of 90% or more (almost completely withered)) | 5 (Herbicidal rate of 90% or more (almost completely withered))
